The nature of this data set: Plasma protein binding (equilibrium dialysis). The class given is in vitro ADME. The conditions noted are these: human plasma. Here is the method:
PPB assays were carried out using the HTD 96-well equilibrium DIALYZERTM (Htdialysis, Gales Ferry, CT, USA). […] Then, the (solution A) was titrated with the (solution B) to pH 7.4 to prepare the dialysis buffer (solution C). The quench solution (solution D) consisted of Alprazolam (100 nM) and Ketoprofen (2 μM) in acetonitrile.
Total 3 μL of testing plasm samples (dissolved in DMSO, 200 μM) was mixed with 597 μL of plasma (the final concentration was 1 μM). The dialysis membranes were pre-soaked with water (60 min), then with 20% ethanol (20 min), and with dialysis buffer (20 min). Both the plasm samples and the dialysis buffer are 100 μL. Then, the dialysis plate was sealed and incubated at 37 °C with 5% CO2 at 100 rpm for 6 h. After 6 hours’ incubation, 50 μL of samples of the dialysis buffer and plasma samples were collected and re-added to a 96-well plate. Then, 50 μL of blank plasma was added to buffer samples, and 50 μL PBS was added to plasma samples. Subsequently, 300 μL quench solution was added to precipitate protein.
Peak Area Ratio buffer chamber means the conc for free fraction;
Peak Area Ratio plasma chamber means the conc for both free and bound fraction;
Peak Area Ratio total sample means the conc for starting sample before incubation.
Background: In equilibrium dialysis only unbound substance equilibrates across the membrane.

From publication PMC10891682, “In Vitro Metabolism and In Vivo Pharmacokinetics Profiles of Hydroxy-α-Sanshool” (Toxics, 2024) come the findings set out here.

Values joined by “and” are separate entries in the source; they are usually repeats but may differ in a detail not shown here. Equal entries are not always repeated.

Take `CC(=O)N1CCN(c2ccc(OCC3COC(Cn4ccnc4)(c4ccc(Cl)cc4Cl)O3)cc2)CC1` (stereo not shown) [Ketoconazole]: the “Bound (%)” value (1 μM, 6 h dialysis, 37 °C) is 98.53% and 98.53 ± 4.76%. Moreover, under “6 h”, the “Remaining at 6 h (%)” value is recorded as 110.91 ± 6.04%. For the setting “pH 7.4, 1 μM, 6 h dialysis, 37 °C”, this compound returned a recovery at 6 h, 1 μM of 92.6 ± 7.48%. For the same compound, the fraction unbound (in general, the share of the substance not bound to proteins or other matrix) at 6 h, 1 µM (pH 7.4, 1 μM, 6 h dialysis, 37 °C, read-out: Fu (%), unbound fraction) worked out at 0.0147 ± 0.0068.
